Laboratory results published in patent US20260001875A1, “AMINOPYRIMIDINYL DERIVATIVES FOR THE TREATMENT OF PARKINSON'S DISEASE” (UNIVERSITY OF DUNDEE, priority 2022, published 2026).

Tests used:
Rab10 pThr73 [1] = experiment: Rab10 Thr73 dephosphorylation (immunoblot) in WT MEFs; type: cell-based, mouse; conditions: Mus musculus, read-out: pRab10 inhibited in WT MEFs
Method: (§1) Western blot degradation assays for the LRRK2 protacs were performed with WT and PD-associated LRRK2 [G2019S] mouse embryonic fibroblasts (MEFs). The second-generation PROTACs were tested in parallel with the first generation PROTACs SD75, SD82, and SD100. The compounds were tested at 33 nM or […] concentrations for 4 hours or 24 hours, running two biological replicates per condition and achieving quantifications representative of both replicates. Analysis by quantitative immunoblotting was performed with readouts of the total LRRK2 (antibody recognizes epitope in C-terminus of protein), Rab10 pThr73 (physiological substrate) and LRRK2 pSer935 (biomarker phosphorylation site).
(§2) Primary MEFs were generated as described in a previous study (Wiggin et al., Mol. Cell Biol. 2002 April; 22(8):2871-81.). Briefly, the uterine horn was collected from adult female mice at day E12.5 and transferred to a 10 cm tissue culture dish containing cold PBS. Two forceps were used to tear the yolk sacs to isolate each embryo. Forceps were cleaned thoroughly with 70% ethanol between each embryo isolation. The embryos were culled, and a tissue piece was collected in a PCR tube for genotyping. The red tissue of the embryo, which grows to become the heart and liver, was removed. The remainder of the embryo was minced with a scalpel blade and incubated with 7.5 ml trypsin-EDTA solution for 10 minutes in a 37° C. tissue culture CO2 incubator. The dish was removed from the incubator and checked under a light microscope for single cells. 7.5 ml complete media was added to the trypsinised cells, and the cell suspension was transferred to a 15 ml Falcon tube, centrifuged at 1200 rpm for 5 minutes at room temperature. The trypsin was aspirated, the cell pellet was resuspended in 5 ml fresh complete media, and the cell suspension was plated in a 60 mm tissue culture dish and incubated in a 37° C., 5% CO2 tissue culture incubator. The MEFs at this stage were considered as passage 0 and were passaged and expanded for experimental use once the genotype was confirmed by allelic sequencing and immunoblotting. MEFs were cultured in Dulbecco's modified Eagle medium (DMEM) containing 10% (v/v) fetal bovine serum (FBS), 2 mM L-glutamine, 100 U/ml penicillin, and 100 μg/ml streptomycin supplemented with 1× non-essential amino acids and 1 mM sodium pyruvate.
Culturing and passaging of adherent cell lines were carried out using aseptic technique in CL1 or CL2 (for PBMC isolation) biological safety cabinets. All cells were incubated in a 37° C. incubator with 5% CO2. Cell lines were regularly tested for mycoplasma contamination. For western blot assay, the cells were seeded in 6-well plates. After treating with testing compounds at indicated concentrations and time period, the media was removed and the cells were washed with PBS and lysed in 100 μl ice-cold complete lysis buffer containing 50 mM Tris-HCl pH 7.4, 1 mM EGTA, 10 mM 2-glycerophosphate, 50 mM sodium fluoride, 5 mM sodium pyrophosphate, 270 mM sucrose, supplemented with 1 μg/ml microcystin-LR, 1 mM sodium orthovanadate, complete EDTA-free protease inhibitor cocktail (Roche) and 1% (v/v) Triton X-100. The cells were immediately placed on ice and were scraped and collected into 1.5 ml Eppendorf tubes. Cell lysates were incubated on ice for 10 minutes prior to centrifugation at 15,000 g at 4° C. for 15 minutes. The cell pellet was discarded, and supernatant was collected for analysis by quantitative immunoblotting. For long term storage, the supernatant was flash frozen and stored at −80° C. Protein concentrations of cell lysates were determined using the Bradford assay.
Cell lysates containing a quarter of a volume of 4× NuPAGE LDS sample buffer (NP0007) supplemented with 5% β-mercaptoethanol, were heated at 95° C. for 5 minutes. […]

Rab10 pThr73 [2] = experiment: Rab10 Thr73 dephosphorylation (immunoblot) in LRRK2^G2019S MEFs; type: cell-based; conditions: Mus musculus, read-out: pRab10 inhibited in LRRK2^G2019S MEFs
Method: as §1, with “The” for “Western blot degradation assays for the LRRK2 protacs were performed with WT and PD-associated LRRK2 [G2019S] mouse embryonic fibroblasts (MEFs). The”
as §2
Culturing and passaging of adherent cell lines were carried out using aseptic technique in CL1 or CL2 (for PBMC isolation) biological safety cabinets. All cells were incubated in a 37° C. incubator with 5% CO2. Cell lines were regularly tested for mycoplasma contamination. For western blot assay, the cells were seeded in 6-well plates. […] The cells were immediately placed on ice and were scraped and collected into 1.5 ml Eppendorf tubes. Cell lysates were incubated on ice for 10 minutes prior to centrifugation at 15,000 g at 4° C. for 15 minutes. The cell pellet was discarded, and supernatant was collected for analysis by quantitative immunoblotting. For long term storage, the supernatant was flash frozen and stored at −80° C. Protein concentrations of cell lysates were determined using the Bradford assay.
Cell lysates containing a quarter of a volume of 4× NuPAGE LDS sample buffer (NP0007) supplemented with 5% β-mercaptoethanol, were heated at 95° C. for 5 minutes. 15 to 20 μg of samples were loaded onto pre-cast 4-12% Bis-Tris midi 20W or 26W gels (Thermofisher Scientific®, Cat #WG1402BOX or WG1403BOX) and resolved at 130 V for 2 hours with NuPAGE MOPS SDS running buffer (Thermofisher Scientific® Cat #NP0001-02). Proteins were electrophoretically transferred onto a 0.45 μm nitrocellulose membrane (GE Healthcare, Amersham Protran® Supported 0.45 mm NC) at 90 V for 90 min on ice in transfer buffer (48 mM Tris base and 39 mM glycine supplemented with 20% methanol). The transferred membrane was blocked with 5% (w/v) skim milk powder dissolved in tris-buffered saline with tween (TBS-T) (50 mM Tris base, 150 mM sodium chloride (NaCl), 0.1% (v/v) Tween-20) at room temperature for 1 hour.

Rab10 pThr73 [3] = experiment: as above; type: cell-based, mouse; conditions: Mus musculus, read-out: pRab10 inhibited in LRRK2^G2019S MEFs

SMILES | inhibition at 0.033 µM (Rab10 pThr73 [1]; 33 nM/4 h treatment) [%] | inhibition at 0.033 µM (Rab10 pThr73 [1]; 33 nM/24 h treatment) [%] | inhibition at 1 µM (Rab10 pThr73 [1]; 1 μM/4 h treatment) [%] | inhibition at 1 µM (Rab10 pThr73 [1]; 1 μM/24 h treatment) [%] | inhibition at 0.033 µM (Rab10 pThr73 [2]; 33 nM/4 h treatment) [%] | inhibition at 0.033 µM (Rab10 pThr73 [2]; 33 nM/24 h treatment) [%] | inhibition at 1 µM (Rab10 pThr73 [3]; 1 μM/4 h treatment) [%] | inhibition at 1 µM (Rab10 pThr73 [3]; 1 μM/24 h treatment) [%]
CNc1nc(Nc2ccc(C(=O)N3CCN(CC#CCSC(C)(C)[C@H](NC(=O)C4(F)CC4)C(=O)N4C[C@H](O)C[C@H]4C(=O)NCc4ccc(-c5scnc5C)cc4)CC3)cc2OC)ncc1Cl [XL01076, (2S,4R)-1-((R)-3-((4-(4-(4-((5-chloro-4-(methylamino)pyrimidin-2-yl)amino)-3 methoxybenzoyl)piperazin-1-yl)but-2-yn-1-yl)thio)-2-(1-fluorocyclopropane-1-carboxamido)-3-methylbutanoyl)-4-hydroxy-N-(4-(4-methylthiazol-5-yl)benzyl)pyrrolidine-2-carboxamide] | 0 to 40 | 0 to 60 | 10 to 95 | 30 to 100 | 0 to 70 | 0 to 90 | 20 to 100 | 10 to 100
CNc1nc(Nc2ccc(C(=O)N3CCN(Cc4ccc(CSC(C)(C)[C@H](NC(=O)C5(F)CC5)C(=O)N5C[C@H](O)C[C@H]5C(=O)N[C@@H](C)c5ccc(-c6scnc6C)cc5)cc4)CC3)cc2OC)ncc1Cl [XL01120, (2S,4R)-1-((R)-3-((4-((4-(4-((5-chloro-4-(methylamino)pyrimidin-2-yl)amino)-3-methoxybenzoyl)piperazin-1-yl)methyl)benzyl)thio)-2-(1-fluorocyclopropane-1-carboxamido)-3-methylbutanoyl)-4-hydroxy-N—((S)-1-(4-(4-methylthiazol-5-yl)phenyl)ethyl)pyrrolidine-2-carboxamide] | 0 to 40 | 0 to 60 | 10 to 95 | 30 to 100 | 0 to 70 | 0 to 90 | 20 to 100 | 10 to 100
CNc1nc(Nc2ccc(C(=O)N3CCN(C[C@H](C)SC(C)(C)[C@H](NC(=O)C4(F)CC4)C(=O)N4C[C@H](O)C[C@H]4C(=O)NCc4ccc(-c5scnc5C)cc4)CC3)cc2OC)ncc1Cl [XL01140, (2S,4R)-1-((R)-3-(((S)-1-(4-(4-((5-chloro-4-(methylamino)pyrimidin-2-yl)amino)-3-methoxybenzoyl)piperazin-1-yl)propan-2-yl)thio)-2-(1-fluorocyclopropane-1-carboxamido)-3-methylbutanoyl)-4-hydroxy-N-(4-(4-methylthiazol-5-yl)benzyl)pyrrolidine-2-carboxamide] | 0 to 40 | 0 to 60 | 10 to 95 | 30 to 100 | 0 to 70 | 0 to 90 | 20 to 100 | 10 to 100
CNc1nc(Nc2ccc(C(=O)N3CCN(CCCN4CCN(c5ccc6c(c5)C(=O)N(C5CCC(=O)NC5=O)C6=O)CC4)CC3)cc2OC)ncc1Cl (stereo not drawn) [SD11, 5-(4-(3-(4-(4-((5-chloro-4-(methylamino)pyrimidin-2-yl)amino)-3-methoxybenzoyl)piperazin-1-yl)propyl)piperazin-1-yl)-2-(2,6-dioxopiperidin-3-yl)isoindoline-1,3-dione] | 0 to 25 | 10 to 40 | 18 to 90 | 30 to 90 | 0 to 60 | 0 to 70 | 30 to 95 | 30 to 100
CNc1nc(Nc2ccc(C(=O)N3CCN(CCCSC(C)(C)[C@H](NC(=O)C4(F)CC4)C(=O)N4C[C@H](O)C[C@H]4C(=O)NCc4ccc(-c5scnc5C)cc4)CC3)cc2OC)ncc1C(F)(F)F [XL01072, (2S,4R)-1-((R)-2-(1-fluorocyclopropane-1-carboxamido)-3-((3-(4-(3-methoxy-4-((4-(methylamino)-5-(trifluoromethyl)pyrimidin-2-yl)amino)benzoyl)piperazin-1-yl)propyl)thio)-3-methylbutanoyl)-4-hydroxy-N-(4-(4-methylthiazol-5-yl)benzyl)pyrrolidine-2-carboxamide] | 0 to 40 | 0 to 60 | 10 to 95 | 30 to 100 | 0 to 70 | 0 to 90 | 20 to 100 | 10 to 100
CNc1nc(Nc2ccc(C(=O)N3CCN(CCOCCOCCOc4cccc(C(=O)c5csc(C6CCCN6C(=O)[C@@H](NC(=O)[C@H](C)NC)C6CCCCC6)n5)c4)CC3)cc2OC)ncc1Cl (stereo partly drawn) [SD113, (S)—N—((S)-2-((S)-2-(4-(3-(2-(2-(2-(4-(4-((5-chloro-4-(methylamino)pyrimidin-2-yl)amino)-3-methoxybenzoyl)piperazin-1-yl)ethoxy)ethoxy)ethoxy)benzoyl)thiazol-2-yl)pyrrolidin-1-yl)-1-cyclohexyl-2-oxoethyl)-2-(methylamino)propenamide] | 0 to 25 | 10 to 40 | 18 to 90 | 30 to 90 | 0 to 60 | 0 to 70 | 30 to 95 | 30 to 100
